Drawing on PubChem BioAssay (NCI), this text covers TGI and GI50 for eleven compounds.

“And” between values parts separate entries of the source, which are not always exact repeats. Identical values can stand only once.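 Compound exposure: 48 hours, 5 concentrations, 96-well plates. At the GI50, growth is halved. TGI: concentration producing complete growth inhibition.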

Some test systems named below: NCI-H226 lung; MALME-3M melanoma; OVCAR-5 ovarian; DMS 273 small cell lung; KM20L2 colon; HOP-92 NSCLC; IGROV1 ovarian; NCI-H460 lung; RXF 393 renal; MDA-MB-231 breast.
What all share (assay): NCI tumour cell line growth inhibition, 48 h

Turning to `CN(/N=C\c1ccnc2ccccc12)c1ccc([N+](=O)[O-])cc1`, the TGI with NCI-H226 lung, in the assay on MALME-3M melanoma, with OVCAR-5 ovarian, in the assay on DMS 273 small cell lung, in the assay with KM20L2 colon and in the assay with HOP-92 NSCLC was more than 100 µM in each case. In the assay with IGROV1 ovarian, this compound returned a TGI of more than 100 µM.

For `CCNC(=O)OCc1c(COC(=O)NCC)c(-c2ccc(Cl)c(Cl)c2)n2c1CCC2`, the TGI in the assay on NCI-H226 lung turned out to be 7.85 µM; with MALME-3M melanoma, 30.7 µM; in the assay on OVCAR-5 ovarian, 59.1 µM; in the assay with DMS 273 small cell lung it was 31.1 µM; in the assay on KM20L2 colon, 68.3 µM; with HOP-92 NSCLC, 24.4 µM. Also, the TGI in the assay with IGROV1 ovarian was 48.7 µM; in the assay on NCI-H460 lung, 25.7 µM.

With `COC(=O)[C@@H]1Cc2c([nH]c3ccccc23)[C@H](c2ccccc2)N1`, the TGI with NCI-H226 lung is more than 100 µM; in the assay on MALME-3M melanoma, more than 100 µM; with OVCAR-5 ovarian, more than 100 µM; in the assay on DMS 273 small cell lung, 57.8 µM; in the assay with KM20L2 colon, more than 100 µM; with HOP-92 NSCLC it was more than 100 µM. Also, the results for the TGI with IGROV1 ovarian and in the assay with NCI-H460 lung were 92 µM and more than 100 µM, respectively.

With `O=c1c(Cl)c(Cl)cnn1CCCl`, the TGI in the assay on NCI-H226 lung is 52.4 µM; in the assay with MALME-3M melanoma, 7.14 µM; in the assay with OVCAR-5 ovarian, 34.5 µM; in the assay with DMS 273 small cell lung, 21 µM; in the assay on KM20L2 colon, 27.2 µM; with HOP-92 NSCLC, 3.48 µM. For the same compound, the values for the TGI with IGROV1 ovarian, with RXF 393 renal and in the assay with NCI-H460 lung were 3.85 µM, 4.74 µM and 23.1 µM, respectively.

For `COC1(OC)C2(Cl)C(Cl)=C(Cl)C1(Cl)C1C2C2CC1(C(=O)O)c1ccccc12` (stereo unspecified), the TGI in the assay with NCI-H226 lung is 52.5 µM; with MALME-3M melanoma it was 32.1 µM; in the assay on DMS 273 small cell lung, 41.2 µM; with KM20L2 colon, 62.8 µM; with HOP-92 NSCLC it was 93.4 µM; with IGROV1 ovarian it was 69.5 µM. Also, the TGI with NCI-H460 lung is 47.8 µM.

For the compound `CC(=O)[C@H]1CCC2[C@@H]3CC=C4C[C@@H]([O-])CC[C@]4(C)C3CC[C@@]21C.CC(=O)[C@H]1CCC2[C@@H]3CC=C4C[C@@H]([O-])CC[C@]4(C)C3CC[C@@]21C.CC(=O)[CH-]C(=O)c1ccccc1.CC(=O)[CH-]C(=O)c1ccccc1.Cl.[Ti+4]` (stereo partly specified), the GI50 in the assay on NCI-H226 lung is 16.1 µM; in the assay with MALME-3M melanoma, 16 µM; in the assay on OVCAR-5 ovarian, more than 100 µM; in the assay with DMS 273 small cell lung it was 30.3 µM; in the assay with KM20L2 colon, 10.8 µM; in the assay on IGROV1 ovarian, 25.9 µM. The GI50 in the assay on RXF 393 renal is 27.1 µM; in the assay on NCI-H460 lung, 13.9 µM. In addition, the TGI in the assay with NCI-H226 lung was 44.9 µM; with MALME-3M melanoma, 37.3 µM; in the assay with OVCAR-5 ovarian, more than 100 µM; with DMS 273 small cell lung, more than 100 µM; in the assay on KM20L2 colon it was more than 100 µM; in the assay with IGROV1 ovarian, 87.1 µM. Moreover, the TGI is more than 100 µM in the assay with RXF 393 renal and 52.6 µM with NCI-H460 lung.

Regarding `COC(=O)C1C(=O)O[C@@H](c2cc(OC)c(OC)cc2OC)C1C(=O)OC` (mixture of isomers), the TGI in the assay on NCI-H226 lung, with MALME-3M melanoma, in the assay with OVCAR-5 ovarian, with DMS 273 small cell lung, in the assay with KM20L2 colon and with HOP-92 NSCLC was more than 100 µM each time. Besides, the TGI with IGROV1 ovarian, with RXF 393 renal and in the assay on NCI-H460 lung was more than 100 µM each time.

Take `O=C(/C=C/c1cccc([N+](=O)[O-])c1)c1ccc([N+](=O)[O-])cc1`: the TGI with NCI-H226 lung, in the assay with MALME-3M melanoma, in the assay on OVCAR-5 ovarian, with DMS 273 small cell lung, in the assay with KM20L2 colon and in the assay with IGROV1 ovarian was more than 100 µM each time. For the same compound, the TGI with RXF 393 renal and in the assay with NCI-H460 lung was more than 100 µM throughout.

For the compound `CC(C)CCCCCCCCCCCCC(=O)NCC(=O)NC1C(O)C(O)C(Nc2ncnc3nc[nH]c23)OC1C(O)CO` (stereo unspecified), the TGI was 0.0125 µM and 0.00724 µM in the assay on MALME-3M melanoma; 0.0171 µM and 0.0695 µM in the assay with OVCAR-5 ovarian; 0.00174 µM in the assay on DMS 273 small cell lung; 0.0222 µM and 0.0138 µM in the assay on KM20L2 colon; 0.00755 µM and 0.0084 µM in the assay on IGROV1 ovarian; 0.38 µM in the assay with MDA-MB-231 breast. Besides, the GI50 in the assay with OVCAR-5 ovarian is 0.005 µM; with KM20L2 colon it was 0.005 µM; in the assay with HOP-92 NSCLC, less than 0.01 nM; with IGROV1 ovarian it was 0.005 µM; in the assay on RXF 393 renal, less than 1e-05 µM; in the assay with MDA-MB-231 breast, less than 0.01 nM.

Take `Clc1cccc(C2N3CCCCC3[C@@H]3c4[nH]c5ccccc5c4CCN23)c1` (stereo partly specified): the TGI in the assay with MALME-3M melanoma is 42.2 µM; in the assay with OVCAR-5 ovarian, 55.5 µM; in the assay on DMS 273 small cell lung, more than 100 µM; with KM20L2 colon, more than 100 µM; with HOP-92 NSCLC, more than 100 µM; with IGROV1 ovarian, more than 100 µM. The TGI with RXF 393 renal was found to be 47.5 µM; in the assay on NCI-H460 lung, 46.1 µM.

For the compound `NC1=NN(c2ccccc2)C(=O)C1C(=O)C(=O)Nc1ccc(Cl)c(Cl)c1` (stereo unspecified), the TGI in the assay with NCI-H226 lung, with MALME-3M melanoma, in the assay on OVCAR-5 ovarian, in the assay with DMS 273 small cell lung, with KM20L2 colon and with HOP-92 NSCLC was more than 100 µM throughout. Further, the TGI in the assay with IGROV1 ovarian, in the assay with RXF 393 renal and in the assay with NCI-H460 lung was more than 100 µM throughout.
